Measurements taken from the RepoRT retention time repository (doi:10.1016/j.foodchem.2021.129757).

Experiments:
Conditions in all cases: stereoisomer not certain
[1] = RP, Phenomenex Kinetex EVO C18, 100 × 2.1 mm, 2.6 µm, 40 °C, 0.4 mL/min, estimated dead time 0.55 min; A: water + 0.2% formic acid; B: acetonitrile + 0.2% formic acid; gradient (min/%B) 0/5 0.5/5 7/95 8/95 8.5/5 12/5
[2] = RP, Waters ACQUITY UPLC BEH Shield RP18, 150 × 2.1 mm, 1.7 µm, 40 °C, 0.4 mL/min, estimated dead time 0.83 min; A: water + 0.1% formic acid, pH 3; B: acetonitrile + 0.1% formic acid, pH 3; gradient (min/%B) 0/0 30/50 31/100 37/100 37.1/0
[3] = RP, Agilent ZORBAX RRHD Eclipse Plus C18, 50 × 2.1 mm, 1.8 µm, 30 °C, 0.4 mL/min, estimated dead time 0.28 min; A: water + 0.1% formic acid, pH 3; B: acetonitrile + 0.1% formic acid, pH 3; gradient (min/%B) 0/1 5/10 8/25 9.1/99 10/99 12/1
[4] = RP, Agilent ZORBAX RRHD Eclipse Plus C18, 50 × 2.1 mm, 1.8 µm, 30 °C, 0.4 mL/min, estimated dead time 0.28 min; A: water + 0.1% formic acid, pH 3; B: acetonitrile + 0.1% formic acid, pH 3; gradient (min/%B) 0/1 5/10 8/25 9.1/99 10/99 12/99
[5] = RP, Merck Supelco SUPELCOSIL LC-C18, 250 × 4.6 mm, 5 µm, 40 °C, 1 mL/min, estimated dead time 2.6 min; A: water + 0.1% trifluoroacetic acid, pH 2; B: acetonitrile + 0.1% trifluoroacetic acid, pH 2; gradient (min/%B) 0/5 45/35 47/75 49/35 50/5
[6] = RP, 150 × 2.1 mm, 2.6 µm, 40 °C, 0.35 mL/min, estimated dead time 0.94 min; A: water + 0.1% formic acid, pH 3; B: acetonitrile + 0.1% formic acid, pH 3; gradient (min/%B) 0/0 1/0 12.5/100 14/100 14.2/0 15/0
[7] = RP, 150 × 2.1 mm, 2.6 µm, 40 °C, 0.35 mL/min, estimated dead time 0.94 min; A: water + 0.1% formic acid, pH 3; B: acetonitrile + 0.1% formic acid, pH 3; gradient (min/%B) 0/0 1/5 7/45 8.5/80 10.5/80 11/5 12/5
[8] = Other, Phenomenex Kinetex PFP, 100 × 4.6 mm, 5 µm, 45 °C, 0.6 mL/min, estimated dead time 1.8 min; A: water + 0.1% trifluoroacetic acid, pH 2; B: methanol; gradient (min/%B) 0/40 20/72 21/40
[9] = RP, Merck LiChrospher RP-18, 250 × 4 mm, 5 µm, 35 °C, 0.3 mL/min, estimated dead time 6.7 min; A: water + 0.5% formic acid; B: acetonitrile + 0.5% formic acid; gradient (min/%B) 0/5 10/5 30/15 45/20 65/20 95/54 110/63 115/5 135/5
[10] = RP, Waters ACQUITY UPLC HSS T3, 100 × 2.1 mm, 1.8 µm, 30 °C, 0.4 mL/min, estimated dead time 0.55 min; A: water + 0.1% formic acid, pH 3; B: acetonitrile + 0.1% formic acid, pH 3; gradient (min/%B) 0/0 2/0 15/100 22/100 22.1/0 26/0
[11] = RP, Waters ACQUITY UPLC BEH C18, 100 × 2.1 mm, 1.7 µm, 65 °C, 0.4 mL/min, estimated dead time 0.55 min; A: water + 0.1% formic acid, pH 3; B: 80% acetonitrile + 20% acetone + 0.1% formic acid, pH 3; gradient (min/%B) 0/0 5/100 5.5/0 6/0
[12] = RP, Agilent InfinityLab Poroshell 120 EC-C18, 100 × 3 mm, 2.7 µm, 25 °C, 0.4 mL/min, estimated dead time 1.1 min; A: water + 0.1% formic acid, pH 3; B: acetonitrile + 0.1% formic acid, pH 3; gradient (min/%B) 0/5 10/25 20/40 24/90 25/90 26/5 30/5
[13] = RP, Phenomenex Synergi Hydro-RP, 250 × 2 mm, 4 µm, 25 °C, 0.2 mL/min, estimated dead time 2.5 min; A: water + 0.1% formic acid, pH 3; B: acetonitrile + 0.1% formic acid, pH 3; gradient (min/%B) 0/0.5 7/0.5 12/12.5 25/16.3 47/35 48/65 50/65 50.1/0.5
[14] = RP, Agilent ZORBAX Eclipse XDB-C18, 100 × 2.1 mm, 1.8 µm, 50 °C, 0.4 mL/min, estimated dead time 0.55 min; A: water + 0.1% formic acid, pH 3; B: methanol + 0.1% formic acid, pH 3; gradient (min/%B) 0/2 10/100 14.5/100 14.51/2 16.5/2
[15] = RP, Waters Atlantis T3, 100 × 2.1 mm, 3 µm, 40 °C, 0.3 mL/min, estimated dead time 0.73 min; A: water + 0.1% trifluoroacetic acid, pH 2; B: acetonitrile + 0.1% trifluoroacetic acid, pH 2; gradient (min/%B) 0/10 1/10 6/40 7/50 8/50 14/70 16/80 20/10 25/10

Compound	LC retention time [3]	LC retention time [4]	LC retention time [5]	LC retention time [6]	LC retention time [7]	LC retention time [8]	LC retention time [13]	also measured
O=C(O)C1OC(Oc2c(-c3ccc(O)c(O)c3)oc3cc(O)cc(O)c3c2=O)C(O)C(O)C1O (stereo not given) [Quercetin-3-O-glucuronide]	7.9 min	8.38 min	26.2 min	–	–	–	–	LC retention time [1]: 4.92 min; LC retention time [2]: 13.7 min
O=C(C=Cc1ccc(O)c(O)c1)OC1C(O)CC(O)(C(=O)O)CC1O (stereo not given) [Cryptochlorogenic acid]	–	–	14.1 min	4.63 min	4.45 min	–	–	–
O=C1CC(c2ccc(O)c(O)c2)Oc2cc(O)cc(O)c21 (stereo not given) [Eriodictyol]	–	–	–	6.95 min	7.21 min	15.4 min	–	LC retention time [9]: 88.7 min; LC retention time [10]: 10.9 min; LC retention time [11]: 2.59 min; LC retention time [12]: 13.7 min
COc1cc(-c2[o+]c3cc(O)cc(O)c3cc2OC2OC(CO)C(O)C(O)C2O)cc(O)c1O (stereo not given) [Petunidin-3-O-glucoside]	–	–	22.3 min	–	–	–	–	–
O=C(O)C=Cc1ccccc1O [o-Coumaric acid]	8.32 min	8.67 min	25.9 min	6.29 min	6.36 min	–	37.5 min	LC retention time [9]: 74.4 min; LC retention time [2]: 12.7 min
CC1OC(Oc2c(-c3ccc(O)c(O)c3)oc3cc(O)cc(O)c3c2=O)C(O)C(O)C1O (stereo not given) [Quercitrin]	–	–	29.4 min	6.01 min	6.17 min	–	38.3 min	–
O=C(O)c1ccc(O)c(O)c1O [2,3,4-Trihydroxybenzoic acid]	–	–	8.9 min	–	–	4.34 min	–	–
O=C(C=Cc1ccc(O)c(O)c1)OC1CC(OC(=O)C=Cc2ccc(O)c(O)c2)(C(=O)O)CC(O)C1O (stereo not given) [1,3-dicaffeoylquinic acid]	–	–	19.1 min	–	–	–	–	–
O=c1cc2oc(-c3cc(O)c(O)c(O)c3)c(O)cc-2c(O)c1 [Delphinidin]	–	–	25.1 min	–	–	8.44 min	–	–
O=C(O)c1cc(O)ccc1O [Gentisic acid]	4.25 min	2.82 min	12.5 min	4.7 min	4.37 min	–	19.9 min	LC retention time [10]: 8.3 min; LC retention time [14]: 2.85 min; LC retention time [2]: 6.28 min; LC retention time [12]: 5.44 min
OCC1OC(Oc2cc3c(O)cc(O)cc3[o+]c2-c2ccc(O)cc2)C(O)C(O)C1O (stereo not given) [Pelargonidin-3-O-glucoside]	–	–	23.4 min	–	–	–	–	–
O=C(O)c1cccc(O)c1 [3-Hydroxybenzoic acid]	5.36 min	4.26 min	–	–	–	5.57 min	22.7 min	LC retention time [15]: 5.01 min
COc1cc(-c2[o+]c3cc(O)cc(O)c3cc2OC2OC(CO)C(O)C(O)C2O)ccc1O (stereo not given) [Peonidin-3-O-glucoside]	–	–	24.8 min	–	–	–	–	–
